Measured values from ChEMBL document CHEMBL5724806, “Unraveling interindividual differences and functional consequences of gut microbial metabolism of immunosuppressants” (2024).

What was measured:
Type in all cases: ADME
[1] = The drug is tested on the gut metagenome community of A-07 with ENA study accession number: PRJEB31790 for biotransformation under microaerobic condition. The drug concentrations were measured over 7 timepoints collected between 0 and 12 hours of incubation by liquid-chromatography-coupled mass spectrometry (LC–MS); design: dose 5 uM, timepoint 0, 0.75, 1.5, 3, 6, 9, 12 hours; settings: 5 µM
[2] = The drug is tested on Lactobacillus fermentum strain: DSM20052 for biotransformation under microaerobic condition. The drug concentrations were measured over 6 timepoints collected between 0 and 12 hours of incubation by liquid-chromatography-coupled mass spectrometry (LC–MS); design: dose 5 uM, timepoint 0, 1.5, 3, 6, 9, 12 hours; settings: limosilactobacillus fermentum, 5 µM
[3] = The drug is tested on Capnocytophaga ochracea strain: DSM7271 for biotransformation under microaerobic condition. The drug concentrations were measured over 6 timepoints collected between 0 and 12 hours of incubation by liquid-chromatography-coupled mass spectrometry (LC–MS); design: dose 5 uM, timepoint 0, 1.5, 3, 6, 9, 12 hours; settings: 5 µM
[4] = The drug is tested on the gut metagenome community of A-09 with ENA study accession number: PRJEB31790 for biotransformation under microaerobic condition. The drug concentrations were measured over 7 timepoints collected between 0 and 12 hours of incubation by liquid-chromatography-coupled mass spectrometry (LC–MS); design: dose 5 uM, timepoint 0, 0.75, 1.5, 3, 6, 9, 12 hours; settings: 5 µM
[5] = The drug is tested on the gut metagenome community of P-04 with ENA study accession number: PRJEB31790 for biotransformation under anaerobic condition. The drug concentrations were measured over 7 timepoints collected between 0 and 12 hours of incubation by liquid-chromatography-coupled mass spectrometry (LC–MS); design: dose 5 uM, timepoint 0, 0.75, 1.5, 3, 6, 9, 12 hours; settings: 5 µM
[6] = The drug is tested on Alloscardovia omnicolens strain: DSM21503 for biotransformation under microaerobic condition. The drug concentrations were measured over 6 timepoints collected between 0 and 12 hours of incubation by liquid-chromatography-coupled mass spectrometry (LC–MS); design: dose 5 uM, timepoint 0, 1.5, 3, 6, 9, 12 hours; settings: 5 µM
[7] = The drug is tested on Enterococcus faecalis strain: ATCC29212 for biotransformation under microaerobic condition. The drug concentrations were measured over 6 timepoints collected between 0 and 12 hours of incubation by liquid-chromatography-coupled mass spectrometry (LC–MS); design: dose 5 uM, timepoint 0, 1.5, 3, 6, 9, 12 hours; settings: 5 µM
[8] = The drug is tested on Escherichia coli strain: DSM27469 for biotransformation under microaerobic condition. The drug concentrations were measured over 6 timepoints collected between 0 and 12 hours of incubation by liquid-chromatography-coupled mass spectrometry (LC–MS); design: dose 5 uM, timepoint 0, 1.5, 3, 6, 9, 12 hours; settings: 5 µM
[9] = The drug is tested on the gut metagenome community of P-02 with ENA study accession number: PRJEB31790 for biotransformation under anaerobic condition. The drug concentrations were measured over 7 timepoints collected between 0 and 12 hours of incubation by liquid-chromatography-coupled mass spectrometry (LC–MS); design: dose 5 uM, timepoint 0, 0.75, 1.5, 3, 6, 9, 12 hours; settings: 5 µM
[10] = The drug is tested on the gut metagenome community of A-08 with ENA study accession number: PRJEB31790 for biotransformation under anaerobic condition. The drug concentrations were measured over 7 timepoints collected between 0 and 12 hours of incubation by liquid-chromatography-coupled mass spectrometry (LC–MS); design: dose 5 uM, timepoint 0, 0.75, 1.5, 3, 6, 9, 12 hours; settings: 5 µM
[11] = The drug is tested on Gemella morbillorum strain: DSM20572 for biotransformation under anaerobic condition. The drug concentrations were measured over 6 timepoints collected between 0 and 12 hours of incubation by liquid-chromatography-coupled mass spectrometry (LC–MS); design: dose 5 uM, timepoint 0, 1.5, 3, 6, 9, 12 hours; settings: 5 µM
[12] = The drug is tested on Gemella haemolysans strain: DSM107751 for biotransformation under microaerobic condition. The drug concentrations were measured over 6 timepoints collected between 0 and 12 hours of incubation by liquid-chromatography-coupled mass spectrometry (LC–MS); design: dose 5 uM, timepoint 0, 1.5, 3, 6, 9, 12 hours; settings: 5 µM
[13] = The drug is tested on the gut metagenome community of P-02 with ENA study accession number: PRJEB31790 for biotransformation under microaerobic condition. The drug concentrations were measured over 7 timepoints collected between 0 and 12 hours of incubation by liquid-chromatography-coupled mass spectrometry (LC–MS); design: dose 5 uM, timepoint 0, 0.75, 1.5, 3, 6, 9, 12 hours; settings: 5 µM
[14] = The drug is tested on the gut metagenome community of A-06 with ENA study accession number: PRJEB31790 for biotransformation under microaerobic condition. The drug concentrations were measured over 7 timepoints collected between 0 and 12 hours of incubation by liquid-chromatography-coupled mass spectrometry (LC–MS); design: dose 5 uM, timepoint 0, 0.75, 1.5, 3, 6, 9, 12 hours; settings: 5 µM
[15] = The drug is tested on the gut metagenome community of T-03 with ENA study accession number: PRJEB31790 for biotransformation under microaerobic condition. The drug concentrations were measured over 7 timepoints collected between 0 and 12 hours of incubation by liquid-chromatography-coupled mass spectrometry (LC–MS); design: dose 5 uM, timepoint 0, 0.75, 1.5, 3, 6, 9, 12 hours; settings: 5 µM
[16] = The drug is tested on the gut metagenome community of A-02 with ENA study accession number: PRJEB31790 for biotransformation under microaerobic condition. The drug concentrations were measured over 7 timepoints collected between 0 and 12 hours of incubation by liquid-chromatography-coupled mass spectrometry (LC–MS); design: dose 5 uM, timepoint 0, 0.75, 1.5, 3, 6, 9, 12 hours; settings: 5 µM
[17] = The drug is tested on Coprococcus comes strain: ATCC27758 for biotransformation under anaerobic condition. The drug concentrations were measured over 6 timepoints collected between 0 and 12 hours of incubation by liquid-chromatography-coupled mass spectrometry (LC–MS); design: dose 5 uM, timepoint 0, 1.5, 3, 6, 9, 12 hours; settings: 5 µM
[18] = The drug is tested on Enterococcus faecalis strain: ATCC29212 for biotransformation under anaerobic condition. The drug concentrations were measured over 6 timepoints collected between 0 and 12 hours of incubation by liquid-chromatography-coupled mass spectrometry (LC–MS); design: dose 5 uM, timepoint 0, 1.5, 3, 6, 9, 12 hours; settings: 5 µM
[19] = The drug is tested on Lactobacillus reuteri strain: DSM20016 for biotransformation under anaerobic condition. The drug concentrations were measured over 6 timepoints collected between 0 and 12 hours of incubation by liquid-chromatography-coupled mass spectrometry (LC–MS); design: dose 5 uM, timepoint 0, 1.5, 3, 6, 9, 12 hours; settings: limosilactobacillus reuteri, 5 µM
[20] = The drug is tested on Lactobacillus fermentum strain: DSM20052 for biotransformation under anaerobic condition. The drug concentrations were measured over 6 timepoints collected between 0 and 12 hours of incubation by liquid-chromatography-coupled mass spectrometry (LC–MS); design: dose 5 uM, timepoint 0, 1.5, 3, 6, 9, 12 hours; settings: limosilactobacillus fermentum, 5 µM
[21] = The drug is tested on Bifidobacterium adolescentis strain: DSM20083 for biotransformation under anaerobic condition. The drug concentrations were measured over 6 timepoints collected between 0 and 12 hours of incubation by liquid-chromatography-coupled mass spectrometry (LC–MS); design: dose 5 uM, timepoint 0, 1.5, 3, 6, 9, 12 hours; settings: 5 µM
[22] = The drug is tested on the gut metagenome community of T-01 with ENA study accession number: PRJEB31790 for biotransformation under microaerobic condition. The drug concentrations were measured over 7 timepoints collected between 0 and 12 hours of incubation by liquid-chromatography-coupled mass spectrometry (LC–MS); design: dose 5 uM, timepoint 0, 0.75, 1.5, 3, 6, 9, 12 hours; settings: 5 µM
[23] = The drug is tested on Bacteroides fragilis strain: DSM2151 for biotransformation under anaerobic condition. The drug concentrations were measured over 6 timepoints collected between 0 and 12 hours of incubation by liquid-chromatography-coupled mass spectrometry (LC–MS); design: dose 5 uM, timepoint 0, 1.5, 3, 6, 9, 12 hours; settings: 5 µM
[24] = The drug is tested on the gut metagenome community of A-05 with ENA study accession number: PRJEB31790 for biotransformation under anaerobic condition. The drug concentrations were measured over 7 timepoints collected between 0 and 12 hours of incubation by liquid-chromatography-coupled mass spectrometry (LC–MS); design: dose 5 uM, timepoint 0, 0.75, 1.5, 3, 6, 9, 12 hours; settings: 5 µM
[25] = The drug is tested on Eubacterium eligens strain: DSM3376 for biotransformation under anaerobic condition. The drug concentrations were measured over 6 timepoints collected between 0 and 12 hours of incubation by liquid-chromatography-coupled mass spectrometry (LC–MS); design: dose 5 uM, timepoint 0, 1.5, 3, 6, 9, 12 hours; settings: lachnospira eligens, 5 µM

| Compound | Bacterial Biotransformation [1] | Bacterial Biotransformation [2] | Bacterial Biotransformation [3] | Bacterial Biotransformation [4] | Bacterial Biotransformation [5] | Bacterial Biotransformation [6] | Bacterial Biotransformation [7] | Bacterial Biotransformation [8] | Bacterial Biotransformation [9] | Bacterial Biotransformation [10] | Bacterial Biotransformation [11] | Bacterial Biotransformation [12] | Bacterial Biotransformation [13] | Bacterial Biotransformation [14] | Bacterial Biotransformation [15] | Bacterial Biotransformation [16] | Bacterial Biotransformation [17] | Bacterial Biotransformation [18] | Bacterial Biotransformation [19] | Bacterial Biotransformation [20] | also measured |
| --- | --- | --- | --- | --- | --- | --- | --- | --- | --- | --- | --- | --- | --- | --- | --- | --- | --- | --- | --- | --- | --- |
| C[C@]12C=CC(=O)C=C1CC[C@@H]1[C@@H]2[C@@H](O)C[C@@]2(C)[C@H]1CC[C@]2(O)C(=O)CO [PREDNISOLONE] | Compound metabolized | Compound NOT metabolized | Compound NOT metabolized | Compound metabolized | Compound metabolized | Compound NOT metabolized | Compound NOT metabolized | Compound NOT metabolized | Compound metabolized | Compound metabolized | Compound NOT metabolized | Compound NOT metabolized | Compound metabolized | Compound metabolized | Compound NOT metabolized | Compound metabolized | Compound NOT metabolized | Compound NOT metabolized | Compound NOT metabolized | Compound NOT metabolized | Bacterial Biotransformation [21]: Compound NOT metabolized; Bacterial Biotransformation [22]: Compound NOT metabolized; Bacterial Biotransformation [23]: Compound NOT metabolized; Bacterial Biotransformation [24]: Compound metabolized; Bacterial Biotransformation [25]: Compound NOT metabolized |
| C[C@]12C=CC(=O)C=C1CC[C@@H]1[C@@H]2C(=O)C[C@@]2(C)[C@H]1CC[C@]2(O)C(=O)CO [PREDNISONE] | Compound metabolized | Compound NOT metabolized | Compound NOT metabolized | Compound metabolized | Compound metabolized | Compound NOT metabolized | Compound NOT metabolized | Compound NOT metabolized | Compound metabolized | Compound metabolized | Compound NOT metabolized | Compound NOT metabolized | Compound metabolized | Compound metabolized | Compound NOT metabolized | Compound metabolized | Compound NOT metabolized | Compound NOT metabolized | Compound NOT metabolized | Compound NOT metabolized | Bacterial Biotransformation [21]: Compound NOT metabolized; Bacterial Biotransformation [22]: Compound metabolized; Bacterial Biotransformation [23]: Compound NOT metabolized; Bacterial Biotransformation [24]: Compound metabolized; Bacterial Biotransformation [25]: Compound NOT metabolized |
| CNC(=C[N+](=O)[O-])NCCSCc1ccc(CN(C)C)o1 [RANITIDINE] | Compound metabolized | Compound NOT metabolized | Compound NOT metabolized | Compound metabolized | Compound NOT metabolized | Compound NOT metabolized | Compound metabolized | Compound NOT metabolized | Compound metabolized | Compound NOT metabolized | Compound NOT metabolized | Compound NOT metabolized | Compound NOT metabolized | Compound metabolized | Compound NOT metabolized | Compound metabolized | Compound NOT metabolized | Compound NOT metabolized | Compound NOT metabolized | Compound NOT metabolized | Bacterial Biotransformation [21]: Compound NOT metabolized; Bacterial Biotransformation [22]: Compound NOT metabolized; Bacterial Biotransformation [23]: Compound NOT metabolized; Bacterial Biotransformation [24]: Compound NOT metabolized; Bacterial Biotransformation [25]: Compound metabolized |
